Source: patent US10584115B2, “Substituted pyridine and pyrazine BMI-1 inhibitors” (PTC Therapeutics, Inc., priority 2013, dated 2020)

These compounds were tested on Bmi-1 protein (assay: Sandwich ELISA Assay (Bmi-1 protein level in HT-1080 cells after compound treatment)). Conditions: Table 1, Bmi-1 sandwich ELISA, read-out: ELISA EC50 value for Bmi-1 protein.
Type: cell-based
How it was run: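 HT-1080 cells exposed to compounds for 40–48 h at 37 °C (0.5% DMSO final), then lysed. Bmi-1 in lysates measured by sandwich ELISA (mouse monoclonal capture, rabbit anti-Bmi-1 detection, HRP anti-rabbit, TMB), read at OD450 with OD570 reference against a recombinant Bmi-1 standard curve (0–8000 pg/mL).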
`CCc1nc2ncc(Cl)cc2n1-c1cc(C#N)cc(Nc2ccc(C(F)(F)F)cc2)n1` [compound 450, 2-(6-chloro-2-ethyl-1H-imidazo[4,5-b]pyridin-1-yl)-6-{[4-(trifluoromethyl)phenyl]amino}pyridine-4-carbonitrile] gave an EC50 of 10 to 100 nM. Compound `CCc1nc2ncc(Cl)cc2n1-c1cc(C#N)cc(Nc2ccc(OC(F)F)cc2)n1` [compound 451, 2-(6-chloro-2-ethyl-1H-imidazo[4,5-b]pyridin-1-yl)-6-{[4-(difluoromethoxy)phenyl]amino}pyridine-4-carbonitrile] has an EC50 of 1 to 10 nM. `CCc1nc2ncc(Cl)cc2n1-c1cc(C#N)cc(Nc2ccc(OC(F)F)cc2)n1` [compound 452, 2-(6-chloro-2-ethyl-1H-imidazo[4,5-b]pyridin-1-yl)-6-{[4-(difluoromethoxy)phenyl]amino}pyridine-4-carbonitrile] showed an EC50 of 10 to 100 nM. Work on `Cc1nc2ncc(F)cn2c1-c1cncc(Nc2ccc(C(F)(F)F)cc2)n1` [compound 453, 6-(6-fluoro-2-methylimidazo[1,2-a]pyrimidin-3-yl)-N-[4-(trifluoromethyl)phenyl]pyrazin-2-amine] yielded an EC50 of 10 to 100 nM. For `Fc1cnc2nc(C3CC3)n(-c3cncc(Nc4ccc(OC(F)F)cc4)n3)c2c1` [compound 455, 6-(2-cyclopropyl-6-fluoro-1H-imidazo[4,5-b]pyridin-1-yl)-N-[4-(difluoromethoxy)phenyl]pyrazin-2-amine], the EC50 was 10 to 100 nM. `Fc1cnc2nc(C3CC3)n(-c3cncc(Nc4ccc(OC(F)(F)F)cc4)n3)c2c1` [compound 456, 6-(2-cyclopropyl-6-fluoro-1H-imidazo[4,5-b]pyridin-1-yl)-N-[4-(trifluoromethoxy)phenyl]pyrazin-2-amine] was tested, and the EC50 was 100 to 3000 nM. `Cc1nc2ccccc2n1-c1cncc(Nc2ccc(C(F)(F)F)cn2)n1` [compound 457, 6-(2-methyl-1H-benzimidazol-1-yl)-N-[5-(trifluoromethyl)pyridin-2-yl]pyrazin-2-amine] showed an EC50 of 100 to 3000 nM. Work on `Fc1cnc2nc(C3CC3)n(-c3cncc(Nc4ccc(C(F)(F)F)nc4)n3)c2c1` [compound 458, 6-(2-cyclopropyl-6-fluoro-1H-imidazo[4,5-b]pyridin-1-yl)-N-[6-(trifluoromethyl)pyridin-3-yl]pyrazin-2-amine] yielded an EC50 of 100 to 3000 nM. For `Fc1cnc2nc(C3CC3)n(-c3cncc(Nc4ccc(OC(F)F)c(F)c4)n3)c2c1` [compound 459, 6-(2-cyclopropyl-6-fluoro-1H-imidazo[4,5-b]pyridin-1-yl)-N-[4-(difluoromethoxy)-3-fluorophenyl]pyrazin-2-amine], the EC50 was 10 to 100 nM. `Fc1cc2nc(C3CC3)n(-c3cncc(Nc4ccc(OC(F)F)cc4)n3)c2cc1F` [compound 460, 6-(2-cyclopropyl-5,6-difluoro-1H-benzimidazol-1-yl)-N-[4-(difluoromethoxy)phenyl]pyrazin-2-amine] was tested, and the EC50 was 10 to 100 nM. `N#Cc1cc(Nc2ccc(OC(F)F)c(F)c2)nc(-n2c(C3CC3)nc3c(F)cc(F)cc32)c1` [compound 476, 2-(2-cyclopropyl-4,6-difluoro-1H-benzimidazol-1-yl)-6-{[4-(difluoromethoxy)-3-fluorophenyl]amino}pyridine-4-carbonitrile] showed an EC50 of 10 to 100 nM. For `FC(F)Oc1ccc(Nc2cncc(-c3cnc4ccccn34)n2)cc1` [compound 477, N-[4-(difluoromethoxy)phenyl]-6-(imidazo[1,2-a]pyridin-3-yl)pyrazin-2-amine], the EC50 was 100 to 3000 nM. Compound `N#Cc1cc(Nc2ccc(C(F)(F)F)cc2)nc(-n2c(C3CC3)nc3ncc(F)cc32)c1` [compound 490, 2-(2-cyclopropyl-6-fluoro-1H-imidazo[4,5-b]pyridin-1-yl)-6-{[4-(trifluoromethyl)phenyl]amino}pyridine-4-carbonitrile] has an EC50 of 10 to 100 nM. `Cc1nc2cc(F)c(F)cc2n1-c1c[n+]([O-])cc(Nc2ccc(C(F)(F)F)cc2)n1` [compound 495, 6-(5,6-difluoro-2-methyl-1H-benzimidazol-1-yl)-N-[4-(trifluoromethyl)phenyl]pyrazin-2-amine 4-oxide] showed an EC50 of 10 to 100 nM. `Cc1nc2ccccc2n1-c1cc(N)cc(Nc2ccc(OC(F)F)cc2)n1` [compound 496, N^2-[4-(difluoromethoxy)phenyl]-6-(2-methyl-1H-benzimidazol-1-yl)pyridine-2,4-diamine] showed an EC50 of 10 to 100 nM. Work on `Cc1nn2ccccc2c1-c1cncc(Nc2ccc(OC(F)F)cc2)n1` [compound 498, N-[4-(difluoromethoxy)phenyl]-6-(2-methylpyrazolo[1,5-a]pyridin-3-yl)pyrazin-2-amine] yielded an EC50 of 1 to 10 nM. `Cc1nc2ccccc2n1-c1cc(F)cc(Nc2ccc(OC(F)F)cc2)n1` [compound 499, N-[4-(difluoromethoxy)phenyl]-4-fluoro-6-(2-methyl-1H-benzimidazol-1-yl)pyridin-2-amine] gave an EC50 of 10 to 100 nM. Work on `Cc1nn2ccccc2c1-c1cncc(Nc2ccc(OC(F)(F)F)cc2)n1` [compound 500, 6-(2-methylpyrazolo[1,5-a]pyridin-3-yl)-N-[4-(trifluoromethoxy)phenyl]pyrazin-2-amine] yielded an EC50 of 10 to 100 nM. `Cc1nc2cc(F)c(F)cc2n1-c1cncc(Nc2ccc(C=O)cc2)n1` [compound 502, 4-{[6-(5,6-difluoro-2-methyl-1H-benzimidazol-1-yl)pyrazin-2-yl]amino}benzaldehyde] was tested, and the EC50 was 10 to 100 nM. `CCc1nc2cc(F)c(F)cc2n1-c1cc(N)cc(Nc2ccc(C(F)(F)F)cc2)n1` [compound 503, 6-(2-ethyl-5,6-difluoro-1H-benzimidazol-1-yl)-N^2-[4-(trifluoromethyl)phenyl]pyridine-2,4-diamine] showed an EC50 of 10 to 100 nM. Work on `Nc1cc(Nc2ccc(C(F)(F)F)cc2)nc(-n2c(C3CC3)nc3cc(F)c(F)cc32)c1` [compound 504, 6-(2-cyclopropyl-5,6-difluoro-1H-benzimidazol-1-yl)-N^2-[4-(trifluoromethyl)phenyl]pyridine-2,4-diamine] yielded an EC50 of 10 to 100 nM. Compound `Cc1nc2cc(F)c(F)cc2n1-c1cc(N)c(F)c(Nc2ccc(C(F)(F)F)cc2)n1` [compound 505, 6-(5,6-difluoro-2-methyl-1H-benzimidazol-1-yl)-3-fluoro-N^2-[4-(trifluoromethyl)phenyl]pyridine-2,4-diamine] has an EC50 of 10 to 100 nM. With `Cc1nc2ccccc2n1-c1cncc(Nc2ccc(C(F)(F)F)c(N)c2)n1` [compound 506, N^1-[6-(2-methyl-1H-benzimidazol-1-yl)pyrazin-2-yl]-4-(trifluoromethyl)benzene-1,3-diamine] the EC50 was 10 to 100 nM. `Cc1nc2ccccc2n1-c1cncc(Nc2ccc(C(F)F)cc2)n1` [compound 507, N-[4-(difluoromethyl)phenyl]-6-(2-methyl-1H-benzimidazol-1-yl)pyrazin-2-amine] was tested, and the EC50 was 10 to 100 nM. With `Cc1nc2ccccc2n1-c1cncc(Nc2ccc(C(F)F)c(F)c2)n1` [compound 508, N-[4-(difluoromethyl)-3-fluorophenyl]-6-(2-methyl-1H-benzimidazol-1-yl)pyrazin-2-amine] the EC50 was 10 to 100 nM. Work on `CCc1nc2cc(F)c(F)cc2n1-c1cc(N)c(F)c(Nc2ccc(C(F)(F)F)cc2)n1` [compound 509, 6-(2-ethyl-5,6-difluoro-1H-benzimidazol-1-yl)-3-fluoro-N^2-[4-(trifluoromethyl)phenyl]pyridine-2,4-diamine] yielded an EC50 of 10 to 100 nM. `CCc1nc2ccccc2n1-c1cc(N)cc(Nc2ccc(C(F)(F)F)cc2)n1` [compound 510, 6-(2-ethyl-1H-benzimidazol-1-yl)-N^2-[4-(trifluoromethyl)phenyl]pyridine-2,4-diamine] gave an EC50 of 10 to 100 nM. `Cc1nn2ccccc2c1-c1cc(C#N)cc(Nc2ccc(OC(F)F)cc2)n1` [compound 512, 2-{[4-(difluoromethoxy)phenyl]amino}-6-(2-methylpyrazolo[1,5-a]pyridin-3-yl)pyridine-4-carbonitrile] was tested, and the EC50 was 10 to 100 nM. `Cc1nn2ccccc2c1-c1cc(C#N)cc(Nc2ccc(OC(F)F)c(F)c2)n1` [compound 513, 2-{[4-(difluoromethoxy)-3-fluorophenyl]amino}-6-(2-methylpyrazolo[1,5-a]pyridin-3-yl)pyridine-4-carbonitrile] showed an EC50 of 10 to 100 nM. In the case of `Cc1nn2ccccc2c1-c1cc(C#N)cc(Nc2ccc(OC(F)(F)F)cc2)n1` [compound 514, 2-(2-methylpyrazolo[1,5-a]pyridin-3-yl)-6-{[4-(trifluoromethoxy)phenyl]amino}pyridine-4-carbonitrile], the EC50 is reported as 100 to 3000 nM. `Cc1nc2ccccc2n1-c1cc(N)c(F)c(Nc2ccc(C(F)(F)F)cc2)n1` [compound 515, 3-fluoro-6-(2-methyl-1H-benzimidazol-1-yl)-N^2-[4-(trifluoromethyl)phenyl]pyridine-2,4-diamine] showed an EC50 of 10 to 100 nM. For `Cc1nc2cc(F)c(F)cc2n1-c1c[n+]([O-])cc(Nc2ccc(OC(F)F)cc2)n1` [compound 516, N-[4-(difluoromethoxy)phenyl]-6-(5,6-difluoro-2-methyl-1H-benzimidazol-1-yl)pyrazin-2-amine 4-oxide], the EC50 was 10 to 100 nM.

Same assay, conditions: read-out: ELISA EC50 value for Bmi-1 protein, Table 1, Bmi-1 sandwich ELISA
Compound `Cn1nc2c(c1-c1cncc(Nc3ccc(C(F)(F)F)cc3)n1)CCCC2` [compound 454, 6-(2-methyl-4,5,6,7-tetrahydro-2H-indazol-3-yl)-N-[4-(trifluoromethyl)phenyl]pyrazin-2-amine] has an EC50 of 1 to 10 nM. For `Cc1nc2ccccc2n1-c1ccc(N)c(Nc2ccc(C(F)(F)F)cc2)n1` [compound 465, 6-(2-methyl-1H-benzimidazol-1-yl)-N^2-[4-(trifluoromethyl)phenyl]pyridine-2,3-diamine], the EC50 was 100 to 3000 nM. `Cc1nn2ccccc2c1-c1cncc(Nc2ccc(C(F)(F)F)cc2)n1` [compound 497, 6-(2-methylpyrazolo[1,5-a]pyridin-3-yl)-N-[4-(trifluoromethyl)phenyl]pyrazin-2-amine] gave an EC50 of 1 to 10 nM. `Cc1nn2ccccc2c1-c1cc(C#N)cc(Nc2ccc(C(F)(F)F)cc2)n1` [compound 511, 2-(2-methylpyrazolo[1,5-a]pyridin-3-yl)-6-{[4-(trifluoromethyl)phenyl]amino}pyridine-4-carbonitrile] showed an EC50 of 10 to 100 nM.
